Test results reported in patent publication US3978055A, “Arylamino pyrimidinic derivatives” (priority 1973, dated 1976).

Legend:
[1] = tested on: Shay ulcers; assay: Gastric ulcers provoked by tying of the pylorus (Shay ulcers); format: in vivo; details: intraduodenal; rat, 50mg/kg/i.d.; read-out: Percentage reduction of shay ulcers
Procedure: The derivatives of formula I, administered by oral means, reduce the extent of gastric ulcers provoked in a rat by tying of the pylorus (Shay ulcers)
Table IV indicated, by way of example, the results obtained by the administration of 50mg/kg/i.d. of different derivatives of formula I.

[2] = tested on: number of explorations in the escape enclosure; assay: Number of explorations in the escape enclosure (sedative properties); format: in vivo, mouse; details: po; mouse, escape enclosure, 100mg/kg/p.o.; read-out: Percentage diminution of number of explorations
[3] = tested on: local oedema caused by sub-plantar injection of carraghenine; assay: Sub-plantar oedema caused by carraghenine (antiinflammatory); format: in vivo, rat; details: rat, read-out: Percentage reduction of subplantar oedema; for inhibition in vivo at 100 mg/kg: 100 mg/kg/PO
Text: These properties are shown by a diminution of the local oedema caused by the sub-plantar injection of a phlogogenic agent, such as carraghenine, in the rat following the oral administration of derivatives of formula I.

[4] = Lethal doses / percentage mortality; format: in vivo; details: in vivo, mouse; for LD50: po, Table IX, read-out: DE 50 (second column; DL 50) (converted)
Text: As a result of a comparison between the pharmacologically active doses mentioned above, and the lethal doses listed in the following table XIV, the difference between the doses is sufficiently great to permit the utilisation of the derivatives of formula I in therapeutics.

[5] = tested on: isolated heart of guinea-pig; assay: Augmentation of flow of coronary vessels of isolated heart (vasodilatatory); details: Cavia porcellus, read-out: Percentage augmentation of flow of isolated heart of guinea-pig; for activation at 1 µg/mL: 1 μg/ml
Procedure: The derivatives of formula I are capable of augmenting the flow of the coronary vessels of this isolated heart of a guinea - pig, when said derivatives are added in the perfusion liquid of said organ.
The percentage augmentation of the flow of the isolated heart of the guinea - pig by adding different derivatives of formula I to the perfusion liquid are given by way of example in the following Table V.

[6] = tested on: volume of urine emitted; assay: Augmentation of urinary elimination (diuretic properties); format: in vivo; details: po; mouse, 25mg/kg/p.o., 6 hours; read-out: Percentage augmentation of urinary elimination
Procedure: The derivatives of formula I, administered by oral means to the mouse, simultaneously with a volume of 1ml of an isotonic solution of sodium chloride per 25g of the corporeal weight of the mouse, are capable of provoking an augmentation of the volume of urine emitted by reference to control animals, the volume being measured for 6 hours following administration.
The following Table VII indicates, by way of example the percentage augmentation of urinary elimination resulting from the administration of 25mg/kg/p.o. of different derivatives of formula I.

[7] = tested on: arterial pressure of anaesthetised rat; assay: Lowering of arterial pressure of anaesthetised rat (hypotensive properties); format: in vivo; details: 1 mg/kg/i.v.; for Duration of effect: hypotensive effect
Text: Administered by intraveinous means to an anaesthetised rat, the derivatives of formula I provoke a lowering of the arterial pressure.
By way of example, the following Table VIII mentions the results obtained by administration of different derivatives of formula I.

[8] = tested on: painful stretchings caused by phenylbenzoquinone; assay: Analgesic test with phenylbenzoquinone (painful stretchings); format: in vivo; details: Mus musculus, po; for ED50: read-out: 105 DE (DE 50)
[9] = read-out: Percentage of diminution of the number of painful stretchings

| Compound | inhibition in vivo at 50 mg/kg [1] [%] | inhibition in vivo at 100 mg/kg [3] [%] | mortality ([4]; 2000 mg/kg, 2 000 mg/kg/PO) [%] | change in vivo at 25 mg/kg [6] [%] | further results |
| --- | --- | --- | --- | --- | --- |
| COc1cc(-c2nc(C)cc(Nc3ccccc3C(=O)OCC3COC(C)(C)O3)n2)cc(OC)c1OC (stereo not shown) [71 510] | 35 | 40 | 0 | – | inhibition in vivo at 100 mg/kg [2]: 40% |
| Cc1cc(Nc2ccccc2C(N)=O)nc(-c2ccc(Cl)cc2)n1 [72 257] | 50 | – | 0 | – | activation at 1 µg/mL [5]: 80% |
| Cc1cc(Nc2ccc(C(=O)N3CCN(c4ccccc4)CC3)cc2)nc(-c2ccc(Cl)cc2)n1 [72 260] | 35 | – | 0 | – | activation at 1 µg/mL [5]: 70% |
| COc1cc(-c2nc(C)cc(Nc3ccc(C(=O)N4CCCC4)cc3)n2)cc(OC)c1OC [72 271, 2-(3',4',5'-trimethoxyphenyl)-4-(parapyrrolidinocarbonylphenylamino) -6-methyl pyrimidino] | – | 35 | 0 | – | inhibition in vivo at 100 mg/kg [2]: 40% |
| CCOC(=O)c1ccc(Nc2cc(C)nc(-c3ccc(Cl)cc3)n2)cc1 [72 283] | – | 40 | 0 | – | – |
| Cc1cc(Nc2ccc(C(=O)N3CCN(C)CC3)cc2)nc(-c2ccc(Cl)cc2)n1 [72 292] | – | – | 0 | 55 | – |
| COc1cc(-c2nc(C)cc(Nc3ccc(C(=O)N4CCCCC4)cc3)n2)cc(OC)c1OC [72 317] | 40 | 35 | 0 | – | – |
| Cc1cc(Nc2ccc(C(=O)N(C)C)cc2)nc(-c2ccc(Cl)cc2)n1 [72 327] | – | 35 | 0 | 85 | Percentage reduction of arterial pressure of anaesthetised rat [7]: 30%; Duration of effect [7]: 30 mn |
| COc1cc(-c2nc(C)cc(Nc3ccc(C(N)=O)cc3)n2)cc(OC)c1OC [72 417] | 40 | – | 0 | 65 | – |
| Cc1cc(Nc2ccc(C(N)=O)cc2)nc(-c2cccc(C(F)(F)F)c2)n1 [72 432] | 35 | 45 | 0 | 200 | inhibition in vivo at 100 mg/kg [2]: 35% |
| COc1cc(-c2nc(C)cc(Nc3ccccc3C(N)=O)n2)cc(OC)c1OC [72 442] | – | 55 | 0 | – | inhibition in vivo at 100 mg/kg [2]: 60%; Percentage reduction of arterial pressure of anaesthetised rat [7]: 30%; Duration of effect [7]: 20 mn; inhibition in vivo at 100 mg/kg [8, 9]: 70% |
| COc1cc(-c2nc(C)cc(Nc3ccc(C(=O)N4CCN(C)CC4)cc3)n2)cc(OC)c1OC [72 462] | – | 35 | 0 | – | inhibition in vivo at 100 mg/kg [8, 9]: 40% |
| Cc1cc(Nc2ccccc2C(=O)OCC2COC(C)(C)O2)nc(-c2cccc(C(F)(F)F)c2)n1 (stereo not shown) [72 495, N-[2-(3'trifluoromethylphenyl) -6-methyl-4-pyrimidyl](2",2" -dimethyldioxolan-4"-yl) methyl anthranilate] | – | – | 0 | 115 | – |
| CCOC(=O)c1ccc(Nc2cc(C)nc(-c3cccc(C(F)(F)F)c3)n2)cc1 [72 505] | – | – | 0 | – | activation at 1 µg/mL [5]: 50% |
| COc1cc(-c2nc(C)cc(Nc3ccc(C(=O)N4CCOCC4)cc3)n2)cc(OC)c1OC [72 536] | – | 35 | 0 | – | inhibition in vivo at 100 mg/kg [2]: 75% |
| CCOC(=O)c1ccc(Nc2cc(C)nc(-c3ccc4c(c3)OCO4)n2)cc1 [72 613] | 70 | – | 0 | – | activation at 1 µg/mL [5]: 85% |
| Cc1cc(Nc2ccc(C(=O)N3CCOCC3)cc2)nc(-c2ccc3c(c2)OCO3)n1 [72 621] | 40 | – | ~30 | – | – |
| Cc1cc(Nc2ccc(C(=O)N3CCCC3)cc2)nc(-c2ccc3c(c2)OCO3)n1 [72 623] | – | – | 0 | 85 | – |
| Cc1cc(Nc2ccccc2C(=O)OCC(O)CO)nc(-c2ccc3c(c2)OCO3)n1 (stereo not shown) [72 686] | – | – | 0 | – | inhibition in vivo at 25 mg/kg ([3]; 25 mg/kg/PO): 35%; inhibition in vivo at 130 mg/kg [8, 9]: 50% |

| Compound | inhibition in vivo at 50 mg/kg [1] [%] | inhibition in vivo at 100 mg/kg [3] [%] | mortality ([4]; 2000 mg/kg, 2 000 mg/kg/PO) [%] | change in vivo at 25 mg/kg [6] [%] | further results |
| --- | --- | --- | --- | --- | --- |
| Cc1cc(Nc2ccc(C(=O)N3CCCCC3)cc2)nc(-c2ccc3c(c2)OCO3)n1 [72 687] | 40 | – | 0 | – | – |
| Cc1cc(Nc2ccccc2C(=O)OCC2COC(C)(C)O2)nc(-c2ccc3c(c2)OCO3)n1 (stereo not shown) [72 701] | – | – | 0 | 45 | inhibition in vivo at 100 mg/kg [8, 9]: 45% |
| Cc1cc(Nc2ccc(C(=O)N3CCOCC3)cc2)nc(-c2cccc(F)c2)n1 [72 754] | 40 | – | 0 | 50 | – |
| Cc1cc(Nc2ccc(C(N)=O)cc2)nc(-c2cccc(F)c2)n1 [72 773] | 40 | 40 | ~20 | 110 | inhibition in vivo at 100 mg/kg [2]: 45% |
| CCOC(=O)c1ccc(Nc2cc(C)nc(-c3cccc(F)c3)n2)cc1 [72 778] | – | – | 0 | – | inhibition in vivo at 100 mg/kg [2]: 35% |
| Cc1cc(Nc2ccccc2C(N)=O)nc(-c2cccc(F)c2)n1 [72 783] | – | – | 0 | 80 | – |
| Cc1cc(Nc2ccccc2C(=O)OCC2COC(C)(C)O2)nc(-c2cccc(F)c2)n1 (stereo not shown) [72 796] | – | – | 0 | – | activation at 1 µg/mL [5]: 60% |
| Cc1cc(Nc2ccc(OCCN(C)C)cc2)nc(-c2ccccc2)n1 [730 136] | – | – | 0 | – | inhibition in vivo at 100 mg/kg [8, 9]: 46% |
| Cc1cc(Nc2ccc(OCCN3CCCCC3)cc2)nc(-c2ccccc2)n1 [730 221] | – | – | – | – | mortality ([4]; 520 mg/kg/PO): ~50% |
| Cc1cc(Nc2ccc(OCCN(C)C)cc2)nc(-c2cccc(F)c2)n1 [730 224] | – | – | 0 | – | LD50 [4]: > 2000 mg/kg; ED50 [8]: 30 mg/kg |
| Cc1cc(Nc2ccc(OCCN3CCCCC3)cc2)nc(-c2cccc(F)c2)n1 [730 231] | 50 | – | – | – | mortality ([4]; 975 mg/kg/PO): ~50%; LD50 [4]: 975 mg/kg; ED50 [8]: 27 mg/kg |
| Cc1cc(Nc2ccc(CC(=O)O)cc2)nc(-c2cccc(F)c2)n1 [730 234] | – | 35 | – | – | mortality ([4]; 2 400 mg/kg/PO): ~50%; inhibition in vivo at 100 mg/kg [8, 9]: 55% |
| Cc1cc(Nc2ccc(OCCN3CCCC3)cc2)nc(-c2cccc(C(F)(F)F)c2)n1 [730 243] | – | 50 | – | – | mortality ([4]; 1000 mg/kg, 1 000 mg/kg/PO): 0% |
| Cc1cc(Nc2ccc(OCCN3CCCCCC3)cc2)nc(-c2cccc(Cl)c2)n1 [730 283] | 45 | – | – | – | mortality ([4]; 1000 mg/kg, 1 000 mg/kg/PO): ~50%; activation at 0.1 µg/mL ([5]; 0.1 μg/ml): 61%; inhibition in vivo at 100 mg/kg [8, 9]: 57% |
| Cc1cc(Nc2ccc(OCCN3CCCCCC3)cc2)nc(-c2ccccc2)n1 [730 379] | – | – | – | – | mortality ([4]; 625 mg/kg/PO): ~50% |
| Cc1cc(Nc2ccc(OCCN3CCOCC3)cc2)nc(-c2cccc(Cl)c2)n1 [730 695] | – | – | 0 | 43 | inhibition in vivo at 100 mg/kg [8, 9]: 85% |
| Cc1cc(Nc2ccc(OCCN3CCOCC3)cc2)nc(-c2ccc3c(c2)OCO3)n1 [730 731] | – | – | 0 | 37 | Percentage reduction of arterial pressure of anaesthetised rat [7]: 29%; Duration of effect [7]: 30 mn; LD50 [4]: > 2000 mg/kg; ED50 [8]: 27 mg/kg |
| Cc1cc(Nc2ccc(OCCN3CCOCC3)cc2)nc(-c2ccc(Cl)cc2)n1 [730 732] | – | – | 0 | – | LD50 [4]: > 2000 mg/kg; ED50 [8]: 23 mg/kg |
| Cc1cc(Nc2ccc(OCCN3CCOCC3)cc2)nc(-c2ccc(N(C)C)cc2)n1 [740 140] | – | – | 0 | – | Percentage reduction of arterial pressure of anaesthetised rat [7]: 40%; Duration of effect [7]: 30 mn; LD50 [4]: > 2000 mg/kg; ED50 [8]: 33 mg/kg |
